Assay results: ChEMBL document CHEMBL1138412, “Chalcone based aryloxypropanolamines as potential antihyperglycemic agents” (2007)

Legend:
[1] = species: Rattus norvegicus; experiment: Antihyperglycemic activity in sucrose loaded model of Sprague-Dawley albino rat assessed as reduction in blood glucose by AUC method; assay type: functional; design: scale not given: the % may be the effect or the level left
[2] = species: Rattus norvegicus; experiment: Antihyperglycemic activity in streptozotocin induced diabetic model of Sprague-Dawley albino rat assessed as reduction in blood glucose by AUC method; assay type: functional; design: scale not given: the % may be the effect or the level left

Compound | Activity [1] [%] | Activity [2] [%]
O=C(/C=C/c1cccc(OCC(O)CN2CCN(c3ccccc3)CC2)c1)c1ccccc1 (stereo unspecified) | 22.9 | 10.4
CC(C)(C)NCC(O)COc1ccc(/C=C/C(=O)c2ccccc2)cc1 (stereo unspecified) | 29 | 10.3
O=C(/C=C/c1ccc(OCC(O)CN2CCCCC2)cc1)c1ccccc1 (stereo unspecified) | 22.3 | 19.3
O=C(/C=C/c1cccc(OCC(O)CN2CCN(c3ccccc3Cl)CC2)c1)c1ccccc1 (stereo unspecified) | 19 | 8.3
COc1ccc(Cl)cc1C(=O)NCCc1ccc(S(=O)(=O)NC(=O)NC2CCCCC2)cc1 [GLYBURIDE] | 33.7 | 29
CC(C)CNCC(O)COc1cccc(/C=C/C(=O)c2ccccc2)c1 (stereo unspecified) | 14.5 | –
O=C(/C=C/c1ccc(OCC(O)CN2CCN(c3ccccc3)CC2)cc1)c1ccccc1 (stereo unspecified) | 31.1 | 3
CC(C)(C)NCC(O)COc1cccc(/C=C/C(=O)c2ccccc2)c1 (stereo unspecified) | 21.7 | 10.6
CCN(CC)CCCNCC(O)COc1cccc(/C=C/C(=O)c2ccccc2)c1 (stereo unspecified) | 20.8 | 8.3
CN1CCN(CC(O)COc2cccc(/C=C/C(=O)c3ccccc3)c2)CC1 (stereo unspecified) | 20.4 | 20.1
O=C(/C=C/c1cccc(OCC(O)CN2CCCCC2)c1)c1ccccc1 (stereo unspecified) | 11.3 | 9.4
CC(C)N(CC(O)COc1ccc(/C=C/C(=O)c2ccccc2)cc1)C(C)C (stereo unspecified) | 7.9 | –
CN(C)C(=N)NC(=N)N [METFORMIN] | 12.9 | –
CC(C)CNCC(O)COc1ccc(/C=C/C(=O)c2ccccc2)cc1 (stereo unspecified) | 6.5 | –
CC(C)N(CC(O)COc1cccc(/C=C/C(=O)c2ccccc2)c1)C(C)C (stereo unspecified) | 26.7 | 22.6
